Patent US10590129B2 (Incozen Therapeutics Pvt. Ltd., priority 2010, dated 2020)
Structures can show the parent of a compound that is named as a salt.

Test system: MKN-45 cells
Experiment: Inhibition of MKN-45 proliferation (MTT)
Assay type: cell-based, human
Details: for inhibition at 0.1 µM / Inhibition (% Inhibition of MKN-45 proliferation): 0.1 μM
Description: Inhibition of MKN-45 Proliferation:
Cell proliferation assays were carried out using the high Met expressing human gastric adenocarcinoma cell line, MKN-45, according to the following schedule:
Day 1: Cells were plated in 96-well plates in complete growth medium.
Day 2: Compounds at desired concentrations were added.
Day 5: Cell viability was determined using the 3-[4,5-dimethylthiazol-2-yl]-2,5-diphenyltetrazolium bromide (MTT) dye reduction test.

[1] = Homo sapiens, MKN-45, MKN-45 proliferation

| Compound | GI50 [1] | inhibition at 0.1 µM [1] | further results |
| --- | --- | --- | --- |
| CCNC(=O)c1ccc(-c2ccc3nnn(Cc4ccc5c(ccc[n+]5[O-])c4)c3n2)cc1Cl | – | < 25% | inhibition at 1 µM [1]: < 25% |
| Cc1n[nH]cc1-c1ccc2nnn(Cc3ccc4ncccc4c3)c2n1 | – | 25 to 50% | inhibition at 1 µM [1]: < 25% |
| C/C(=N/NC(=O)c1ccncc1)c1ccc2nnn(Cc3ccc4ncccc4c3)c2n1 (single isomer, unassigned) [Ex 220, N′-(1-(3-(quinolin-6-ylmethyl)-3H-[1,2,3]triazolo[4,5-b]pyridin-5-yl)ethylidene)iso-nicotinohydrazide] | – | < 25% | – |
| OCc1ccc(-c2ccc3nnn(Cc4ccc5ncccc5c4)c3n2)cc1F [Ex41, hydrochloride] | – | – | GI50 (MKN-45 proliferation, hydrochloride): 50 to 150 nM |
| O=C(NC1CCCCC1)c1ccc(-c2ccc3nnn(Cc4ccc5ncccc5c4)c3n2)cc1F [Ex45] | 50 to 150 nM | – | – |
| Nc1ccc(-c2ccc3nnn(Cc4ccc5ncccc5c4)c3n2)cc1 [Ex64] | – | < 25% | – |
| O=C(NCc1ccco1)c1ccc(-c2ccc3nnn(Cc4ccc5ncccc5c4)c3n2)cc1F [Ex92] | – | < 25% | – |
| O=C(NC1CC1)c1ccc(-c2ccc3nnn(Cc4ccc5ncccc5c4)c3n2)cc1Cl [Ex113] | – | 75 to 100% | – |
| O=C(O)c1ccc(-c2ccc3nnn(Cc4ccc5ncccc5c4)c3n2)cc1 [Ex 22, Lithium 4-(3-(quinolin-6-ylmethyl)-3H-[1,2,3]triazolo[4,5-b]pyridin-5-yl)benzoate] | – | – | inhibition at 1 µM (Homo sapiens, MKN-45 proliferation): < 25% |
| CNC(=O)c1cccc(-c2ccc3nnn(Cc4ccc5ncccc5c4)c3n2)c1 [Ex 55, N-Methyl-3-(3-(quinolin-6-ylmethyl)-3H-[1,2,3]triazolo[4,5-b]pyridin-5-yl)benzamide] | – | < 25% | – |
| O=C(O)CCNc1ccc(-c2ccc3nnn(Cc4ccc5ncccc5c4)c3n2)cc1F [Ex 58, 3-(2-Fluoro-4-(3-(quinolin-6-ylmethyl)-3H-[1,2,3]triazolo[4,5-b]pyridin-5-yl)phenylamino)propanoic acid] | – | < 25% | inhibition at 1 µM [1]: < 25% |
| CCNC(=O)c1ccc(-c2ccc3nnn(Cc4ccc5ncccc5c4)c3n2)cc1F [Ex 73, N-Ethyl-2-fluoro-4-(3-(quinolin-6-ylmethyl)-3H-[1,2,3]triazolo[4,5-b]pyridin-5-yl)benzamide hydrochloride] | – | 75 to 100% | inhibition at 1 µM [1]: 50 to 75% |
| NC(=O)c1ccc(-c2ccc3nnn(Cc4ccc5ncccc5c4)c3n2)cc1F [Ex 74, 2-Fluoro-4-(3-(quinolin-6-ylmethyl)-3H-[1,2,3]triazolo[4,5-b]pyridin-5-yl)benzamide hydrochloride] | – | 50 to 75% | inhibition at 1 µM [1]: 50 to 75% |
| CC(C)(c1ccc2ncccc2c1)n1nnc2ccc(-c3ccc(C(N)=O)c(F)c3)nc21 [Ex 84, 2-Fluoro-4-(3-(2-(quinolin-6-yl)propan-2-yl)-3H-[1,2,3]triazolo[4,5-b]pyridin-5-yl)benzamide] | – | < 25% | inhibition at 1 µM [1]: < 25% |
| O=C(NC1CC1)c1ccc(-c2ccc3nnn(Cc4ccc5c(ccc[n+]5[O-])c4)c3n2)cc1F [Ex 88, 6-((5-(4-(Cyclopropylcarbamoyl)-3-fluorophenyl)-3H-[1,2,3]triazolo[4,5-b]pyridin-3-yl)methyl)quinoline 1-oxide] | – | < 25% | inhibition at 1 µM [1]: < 25% |
| CN(C)CCCNC(=O)c1ccc(-c2ccc3nnn(Cc4ccc5ncccc5c4)c3n2)cc1F [Ex 121, N-(3-(dimethylamino)propyl)-2-fluoro-4-(3-(quinolin-6-ylmethyl)-3H-[1,2,3]triazolo[4,5-b]pyridin-5-yl)benzamide dihydrochloride] | – | – | inhibition at 1 µM [1]: < 25%; Inhibition (% Inhibition of MKN-45 proliferation) (MKN-45 proliferation, dihydrochloride): A (A = ≥75 to 100%) |
| Cl.NC(=O)c1ccc(-c2ccc3nnn(Cc4ccc5ncccc5c4)c3n2)cc1Cl [Ex 123, 2-Chloro-4-(3-(quinolin-6-ylmethyl)-3H-[1,2,3]triazolo[4,5-b]pyridin-5-yl)benzamide hydrochloride] | – | – | Inhibition (% Inhibition of MKN-45 proliferation) (MKN-45 proliferation): B (B = ≥50-<75%) |
| NCCCNC(=O)c1ccc(-c2ccc3nnn(Cc4ccc5ncccc5c4)c3n2)cc1F [Ex 125, N-(3-Aminopropyl)-2-fluoro-4-(3-(quinolin-6-ylmethyl)-3H-[1,2,3]triazolo[4,5-b]pyridin-5-yl)benzamide dihydrochloride] | – | < 25% | inhibition at 1 µM [1]: < 25% |
| CN(C)CCCNC(=O)c1ccc(-c2ccc3nnn(Cc4ccc5ncccc5c4)c3n2)cc1Cl [Ex 126, 2-Chloro-N-(3-(dimethylamino)propyl)-4-(3-(quinolin-6-ylmethyl)-3H-[1,2,3]triazolo[4,5-b]pyridin-5-yl)benzamide dihydrochloride] | – | 75 to 100% | – |

Second part, led by results:

| GI50 [1] | Compound | inhibition at 0.1 µM [1] | further results |
| --- | --- | --- | --- |
| ≤ 50 nM | CC(c1ccc2ncccc2c1)n1nnc2ccc(-c3ccc(C(N)=O)c(Cl)c3)nc21 (racemic) [Ex 214, 2-Chloro-4-(3-(1-(quinolin-6-yl)ethyl)-3H-[1,2,3]triazolo[4,5-b]pyridin-5-yl)benzamide] | 75 to 100% | – |
| 50 to 150 nM | CNC(=O)c1cccc(-c2ccc3nnn(Cc4ccc5ncccc5c4)c3n2)c1 [Ex55] | – | – |
| ≤ 50 nM | C=CCNC(=O)c1ccc(-c2ccc3nnn(Cc4ccc5ncccc5c4)c3n2)cc1F [Ex61] | – | – |
| ≤ 50 nM | CONC(=O)c1ccc(-c2ccc3nnn(Cc4ccc5ncccc5c4)c3n2)cc1F [Ex62] | – | – |
| 150 to 500 nM | C[C@H](c1ccc2ncccc2c1)n1nnc2ccc(-c3ccc(C(N)=O)c(Cl)c3)nc21 [Ex222] | – | – |
| < 1000 nM | CN1CCN(C(=O)c2ccc(-c3ccc4nnn(Cc5ccc6ncccc6c5)c4n3)cc2)CC1 [Ex 26, (4-Methylpiperazin-1-yl)(4-(3-(quinolin-6-ylmethyl)-3H-[1,2,3]triazolo[4,5-b]pyridin-5-yl)phenyl)methanone] | – | – |
| 50 to 150 nM | CN(C)CCNC(=O)c1ccc(-c2ccc3nnn(Cc4ccc5ncccc5c4)c3n2)cc1 [Ex 27, N-(2-(dimethylamino)ethyl)-4-(3-(quinolin-6-ylmethyl)-3H-[1,2,3]triazolo[4,5-b]pyridin-5-yl)benzamide] | – | – |
| 150 to 500 nM | O=C(NC1CCOCC1)c1ccc(-c2ccc3nnn(Cc4ccc5ncccc5c4)c3n2)cc1 [Ex 28, 4-(3-(quinolin-6-ylmethyl)-3H-[1,2,3]triazolo[4,5-b]pyridin-5-yl)-N-(tetrahydro-2H-pyran-4-yl)benzamide] | – | – |
| 150 to 500 nM | O=C(NC1CCNCC1)c1ccc(-c2ccc3nnn(Cc4ccc5ncccc5c4)c3n2)cc1 [Ex 30, N-(Piperidin-4-yl)-4-(3-(quinolin-6-ylmethyl)-3H-[1,2,3]triazolo[4,5-b]pyridin-5-yl)benzamide hydrochloride] | – | – |
| 150 to 500 nM | CN(C)CCNC(=O)c1ccc(-c2ccc3nnn(Cc4ccc5ncccc5c4)c3n2)cc1F [Ex 31, N-(2-(dimethylamino)ethyl)-2-fluoro-4-(3-(quinolin-6-ylmethyl)-3H-[1,2,3]triazolo[4,5-b]pyridin-5-yl)benzamide] | – | – |
| < 1000 nM | O=C(c1ccc(-c2ccc3nnn(Cc4ccc5ncccc5c4)c3n2)cc1)N1CCC[C@H]1CN1CCCC1 [Ex 32, (S)-(2-(pyrrolidin-1-ylmethyl)pyrrolidin-1-yl)(4-(3-(quinolin-6-ylmethyl)-3H-[1,2,3]triazolo[4,5-b]pyridin-5-yl)phenyl)methanone hydrochloride] | – | – |
| 150 to 500 nM | O=C(c1ccc(-c2ccc3nnn(Cc4ccc5ncccc5c4)c3n2)cc1)N1CCN(CCO)CC1 [Ex 33, (4-(2-hydroxyethyl)piperazin-1-yl)(4-(3-(quinolin-6-ylmethyl)-3H-[1,2,3]triazolo[4,5-b]pyridin-5-yl)phenyl)methanone] | – | – |
| < 1000 nM | O=C(c1ccc(-c2ccc3nnn(Cc4ccc5ncccc5c4)c3n2)cc1)N1CC[C@@H](O)C1 [Ex 34, (R)-(3-hydroxypyrrolidin-1-yl)(4-(3-(quinolin-6-ylmethyl)-3H-[1,2,3]triazolo[4,5-b]pyridin-5-yl)phenyl)methanone hydrochloride] | – | – |
| 50 to 150 nM | O=C(NCCN1CCCCC1)c1ccc(-c2ccc3nnn(Cc4ccc5ncccc5c4)c3n2)cc1 [Ex 35, N-(2-(piperidin-1-yl)ethyl)-4-(3-(quinolin-6-ylmethyl)-3H-[1,2,3]triazolo[4,5-b]pyridin-5-yl)benzamide] | – | – |
| 50 to 150 nM | O=C(NCCN1CCOCC1)c1ccc(-c2ccc3nnn(Cc4ccc5ncccc5c4)c3n2)cc1 [Ex 36, N-(2-morpholinoethyl)-4-(3-(quinolin-6-ylmethyl)-3H-[1,2,3]triazolo[4,5-b]pyridin-5-yl)benzamide] | – | – |
| ≤ 50 nM | O=C(NCCN1CCCC1)c1ccc(-c2ccc3nnn(Cc4ccc5ncccc5c4)c3n2)cc1 [Ex 37, N-(2-(pyrrolidin-1-yl)ethyl)-4-(3-(quinolin-6-ylmethyl)-3H-[1,2,3]triazolo[4,5-b]pyridin-5-yl)benzamide] | – | – |
| < 1000 nM | O=C(c1ccc(-c2ccc3nnn(Cc4ccc5ncccc5c4)c3n2)cc1)N1CCC(N2CCCC2)CC1 [Ex 38, (4-(pyrrolidin-1-yl)piperidin-1-yl)(4-(3-(quinolin-6-ylmethyl)-3H-[1,2,3]triazolo[4,5-b]pyridin-5-yl)phenyl)methanone] | – | – |
| 50 to 150 nM | CN(C)CCCNC(=O)c1ccc(-c2ccc3nnn(Cc4ccc5ncccc5c4)c3n2)cc1 [Ex 39, N-(3-(dimethylamino)propyl)-4-(3-(quinolin-6-ylmethyl)-3H-[1,2,3]triazolo[4,5-b]pyridin-5-yl)benzamide] | – | – |
| < 1000 nM | COCCN(CCOC)C(=O)c1ccc(-c2ccc3nnn(Cc4ccc5ncccc5c4)c3n2)cc1 [Ex 40, N,N-Bis(2-methoxyethyl)-4-(3-(quinolin-6-ylmethyl)-3H-[1,2,3]triazolo[4,5-b]pyridin-5-yl)benzamide hydrochloride] | – | – |
| 50 to 150 nM | O=C(NCCN1CCCC1)c1ccc(-c2ccc3nnn(Cc4ccc5ncccc5c4)c3n2)cc1F [Ex 44, 2-Fluoro-N-(2-(pyrrolidin-1-yl)ethyl)-4-(3-(quinolin-6-ylmethyl)-3H-[1,2,3]triazolo[4,5-b]pyridin-5-yl)benzamide] | – | – |
